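Briefly, cells in 96-well plates were exposed to five compound concentrations for 48 h, and endpoints were estimated by linear interpolation. Definition used: TGI = concentration required for complete inhibition of growth.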 Where a SMILES comes first, the peptide text is derived from it. [ ]: non-standard residue; d: D form. The star is where a group is joined. X28 = COC1=CC(=O)N(C(=O)[C@@H](O*)C(C)C)[C@H]1Cc1ccccc1; NMeL = CN[C@@H](CC(C)C)C(=O)O; Cbz = O=C(OCc1ccccc1)*
Experiments:
Experiment in all cases: NCI anticancer screen, dose series, 48 h
[1] = test system: DMS 273 small cell lung
[2] = test system: LXFL 529 NSCLC
[3] = test system: HL-60(TB) leukemia
[4] = test system: KM20L2 colon
[5] = test system: DMS 114 small cell lung
[6] = test system: UACC-62 melanoma
[7] = test system: SK-MEL-28 melanoma
[8] = test system: DLD-1 colon
[9] = test system: SF-295 CNS
[10] = test system: SK-OV-3 ovarian
[11] = test system: LOX IMVI melanoma
[12] = test system: IGROV1 ovarian
[13] = test system: XF 498 CNS
[14] = test system: MDA-MB-435
[15] = test system: KM12 colon
[16] = test system: SNB-78 CNS
[17] = test system: M19-MEL melanoma
[18] = test system: HOP-18 NSCLC

Row | SMILES | TGI [1] [µM] | TGI [2] [µM] | TGI [3] [µM] | TGI [4] [µM] | TGI [5] [µM] | TGI [6] [µM] | TGI [7] [µM] | TGI [8] [µM] | TGI [9] [µM] | TGI [10] [µM] | TGI [11] [µM] | TGI [12] [µM] | TGI [13] [µM] | TGI [14] [µM] | TGI [15] [µM] | TGI [16] [µM] | TGI [17] [µM] | TGI [18] [µM]
1 | CCN1CCC(O)(c2ccc(Cl)c(Cl)c2)C(C(=O)c2ccc(Cl)c(Cl)c2)C1 (stereo not given) | 34 | 30.1 | 33.4 | 36.6 | 33.9 | 31.5 | 33 | 33 | 31.9 | 32.8 | 34 | 41.3 | 34.4 |  |  |  |  | 
2 | O=c1[nH]c2cc([N+](=O)[O-])c(N(CCO)CCO)c([N+](=O)[O-])c2[nH]1 |  |  | 80.9 |  |  | 72.1 | 91.8 |  | > 100 | 89.7 | > 100 | > 100 |  | 91.7 | 93.3 |  |  | 
3 | C/C(=N\Nc1ncnc2ccccc12)c1ccccn1 |  |  | 10.7 |  |  | 3.22 | 45.6 |  | 17.9 | 4.03 | 5.45 | 2.84 |  | 33 | 22.1 |  |  | 
4 | CC1=NN(c2cccc(Cl)c2)C2(C1)SCC(=O)N2c1nc2ccccc2s1 (stereo not given) |  |  | 43.1 |  |  | > 100 | > 100 |  | 74.9 | 85.3 | 41.6 | > 100 |  | 79.7 | 69.2 |  |  | 
5 | CNc1nc(=O)c(C#N)c(-c2ccc(C)cc2)s1 |  |  | > 100 |  |  | > 100 | > 100 |  | > 100 | > 100 | > 100 | > 100 |  | > 100 | > 100 |  |  | 
6 | O=C(O)C1(CC(CCCN2CCCCC2)c2ccccc2)CCCC1 (stereo not given) |  |  | > 100 |  |  | > 100 | > 100 |  | > 100 | > 100 | > 100 | > 100 |  | > 100 | > 100 |  |  | 
7 | CC1(C)OCC(C2OC(=O)C(OCc3ccccc3)=C2OCc2ccccc2)O1 (stereo not given) |  |  | 52 |  |  | > 100 | > 100 |  | > 100 | > 100 | > 100 | > 100 |  | 79.4 | > 100 |  |  | 
8 | O=C(Nc1cc([N+](=O)[O-])cc([N+](=O)[O-])c1)OC1C2CCC1C1OC1C2 (stereo not given) |  |  | > 50 | > 50 | > 50 | > 50 | > 50 | > 50 | > 50 | > 50 |  | > 50 |  |  | > 50 | > 50 | > 50 | 
9 | CCOC(=O)c1[nH]n(-c2ccccc2)c(=O)c1C=NC(=S)C(N)=S |  |  | > 100 |  |  | > 100 | > 100 |  | > 100 | > 100 | > 100 | > 100 |  | > 100 | > 100 |  |  | 
10 | CC(=O)NNc1nc(C)c(C(/C=C/c2ccc(Cl)cc2)=N/NC(=S)NN)s1 | > 100 | > 100 | > 100 | > 100 | > 100 | > 100 | > 100 | > 100 | > 100 | > 100 | > 100 | > 100 | > 100 |  | > 100 | > 100 | > 100 | > 100
11 | Cc1cc2nc(NS(=O)(=O)c3cc(C)c(Cl)cc3S)[nH]c2cc1C |  |  | > 100 |  |  | > 100 | > 100 |  | > 100 | > 100 | > 100 | > 100 |  | > 100 | > 100 |  |  | 
12 | CCOC(=S)SC/C(=N\OC(C)(C)OC)c1ccccc1 |  |  | 54.7 |  |  | > 100 | > 100 |  | > 100 | > 100 | 31.2 | > 100 |  | 65.7 | > 100 |  |  | 
13 | CN(C)C(=S)/N=c1\ssc(=S)n1Cc1ccccn1 |  | > 100 | > 19.8 |  |  | 11 | > 100 | > 100 | > 65.7 | > 100 | > 100 | > 100 | 34.3 |  | > 48 | > 100 | > 100 | > 100
14 | COC1=CC(=O)N(C(=O)[C@@H](OC(=O)[C@@H]2CCCN2C(=O)[C@@H]2CCCN2C(=O)[C@H](CC(C)C)N(C)C(=O)[C@@H](NC(=O)[C@@H](NC(=O)OCc2ccccc2)C(C)C)C(C)C)C(C)C)[C@H]1Cc1ccccc1 (Cbz-VV[NMeL]PP-X28) |  |  | > 100 |  |  | > 100 | > 100 |  | > 100 | > 100 | > 100 | > 100 |  | > 100 | > 100 |  |  | 
15 | O=C(Nc1ccc(Cl)cc1)c1cc(S(=O)(=O)NC2=NC(c3ccccc3)c3cc(Cl)ccc3N2)c(SSc2cc(Cl)c(C(=O)Nc3ccc(Cl)cc3)cc2S(=O)(=O)NC2=NC(c3ccccc3)c3cc(Cl)ccc3N2)cc1Cl (stereo not given) |  |  | > 42.6 |  |  | > 100 | > 100 |  | > 100 | > 100 | > 100 | > 100 |  | > 100 | > 100 |  |  | 
16 | CN(C)C(=O)CO/N=C1/C(c2c(O)[nH]c3ccccc23)=Nc2ccccc21 |  |  | > 100 |  |  | > 100 | > 100 |  | > 100 | > 100 | > 100 | > 100 |  | > 100 | > 100 |  |  | 
17 | CC1(C)C(C(=O)OC(C#N)c2cccc(OCC(=O)OCc3ccccc3)c2)C1(C)C (stereo not given) |  |  | 22.9 |  |  | > 100 | > 100 |  | > 100 | > 100 | > 100 | > 100 |  | > 100 | > 100 |  |  | 
18 | CCc1c(-c2coc(CC/C(C)=C/c3ccccc3)n2)oc(OC)c(C)c1=O | > 54.7 | > 55.5 | 97.9 | > 54.6 | 29.2 | > 53 | > 100 | > 65.6 | > 100 | > 100 | > 50.9 | > 100 | 75.4 |  | > 100 | > 100 | > 100 | > 100

— PubChem BioAssay (NCI)
